{
  "source": "patent US8012956B2",
  "about": "“Tropane compounds” (Exelixis, Inc., priority 2007, dated 2011)",
  "data": [
    {"target": "HSP90 (Homo sapiens, UniProt P07900)", "assay": "HSP90 inhibition (HSP90 IC50)", "type": "biochemical", "units": {"IC50": "nM"}, "values": [
      {"smiles": "COc1cccc(C(=O)N[C@H]2C[C@H]3CC[C@@H](C2)N3c2ccc(C(=O)NCCC(C)C)cn2)c1C", "note": "[N-(3-methylbutyl)-6-[3-endo-({[2-methyl-3-(methyloxy)phenyl]carbonyl}amino)-8-azabicyclo[3.2.1]oct-8-yl]pyridine-3-carboxamide]", "IC50": "1000 to 2000"},
      {"smiles": "COc1cccc(C(=O)N[C@H]2C[C@H]3CC[C@@H](C2)N3c2ccc(C(=O)Nc3ccc(F)cc3)cn2)c1C", "note": "[N-(4-fluorophenyl)-6-[3-endo-({[2-methyl-3-(methyloxy)phenyl]carbonyl}amino)-8-azabicyclo[3.2.1]oct-8-yl]pyridine-3-carboxamide]", "IC50": "1000 to 2000"},
      {"smiles": "COc1cccc(C(=O)N[C@H]2C[C@H]3CC[C@@H](C2)N3c2ccc(C(=O)Nc3ccc(OCCN(C)C)cc3)cn2)c1C", "note": "[N-(4-{[2-(dimethylamino)ethyl]oxy}phenyl)-6-[3-endo-({[2-methyl-3-(methyloxy)phenyl]carbonyl}amino)-8-azabicyclo[3.2.1]oct-8-yl]pyridine-3-carboxamide]", "IC50": "500 to 999"},
      {"smiles": "CN1CCN(c2ccc(CNC(=O)c3ccc(N4[C@@H]5CC[C@H]4C[C@@H](NC(=O)c4ccc(C(N)=O)cc4)C5)nc3)cc2)CC1", "note": "[N-(8-{5-[({[4-(4-methylpiperazin-1-yl)phenyl]methyl}amino)carbonyl]pyridin-2-yl}-8-azabicyclo[3.2.1]oct-3-endo-yl)benzene-1,4-dicarboxamide]", "IC50": "< 500"},
      {"smiles": "COc1cccc(C(=O)N[C@H]2C[C@H]3CC[C@@H](C2)N3c2ccc(C(=O)NCC3CC3)cn2)c1C", "note": "[N-(cyclopropylmethyl)-6-[3-endo-({[2-methyl-3-(methyloxy)phenyl]carbonyl}amino)-8-azabicyclo[3.2.1]oct-8-yl]pyridine-3-carboxamide]", "IC50": "500 to 999"},
      {"smiles": "COc1cccc(C(=O)N[C@H]2C[C@H]3CC[C@@H](C2)N3c2ccc(C(=O)NCc3ccco3)cn2)c1C", "note": "[N-(furan-2-ylmethyl)-6-[3-endo-({[2-methyl-3-(methyloxy)phenyl]carbonyl}amino)-8-azabicyclo[3.2.1]oct-8-yl]pyridine-3-carboxamide]", "IC50": "< 500"},
      {"smiles": "COc1cccc(C(=O)NC2CC3CCC(C2)N3c2ccc(C(=O)NC(C)c3c(F)cc(C4CCNCC4)cc3F)cn2)c1C", "note": "(stereo not drawn) [N-[1-(2,6-difluoro-4-piperidin-4-ylphenyl)ethyl]-6-[3-endo-({[2-methyl-3-(methyloxy)phenyl]carbonyl}amino)-8-azabicyclo[3.2.1]oct-8-yl]pyridine-3-carboxamide]", "IC50": "2000 to 10000"},
      {"smiles": "COc1cccc(C(=O)NC2CC3CCC(C2)N3c2ccc(C(=O)NC(C)c3ccc(C4CCNCC4)cc3F)cn2)c1C", "note": "(stereo not drawn) [N-[1-(2-fluoro-4-piperidin-4-ylphenyl)ethyl]-6-[3-endo-({[2-methyl-3-(methyloxy)phenyl]carbonyl}amino)-8-azabicyclo[3.2.1]oct-8-yl]pyridine-3-carboxamide]", "IC50": "< 500"},
      {"smiles": "COc1cccc(C(=O)NC2CC3CCC(C2)N3c2ccc(C(=O)NC(C)c3ccc(Br)cc3F)cn2)c1C", "note": "(stereo not drawn) [N-[1-(4-bromo-2-fluorophenyl)ethyl]-6-[3-endo-({[2-methyl-3-(methyloxy)phenyl]carbonyl}amino)-8-azabicyclo[3.2.1]oct-8-yl]pyridine-3-carboxamide]", "IC50": "2000 to 10000"},
      {"smiles": "COc1cccc(C(=O)NC2CC3CCC(C2)N3c2ccc(C(=O)NC(C)c3ccc(Cl)cc3)cn2)c1C", "note": "(stereo not drawn) [N-[1-(4-chlorophenyl)ethyl]-6-[3-endo-({[2-methyl-3-(methyloxy)phenyl]carbonyl}amino)-8-azabicyclo[3.2.1]oct-8-yl]pyridine-3-carboxamide]", "IC50": "< 500"},
      {"smiles": "CCN(CC)CCNC(=O)c1ccc(N2[C@@H]3CC[C@H]2C[C@@H](NC(=O)c2cccc(OC)c2C)C3)nc1", "note": "[N-[2-(diethylamino)ethyl]-6-[3-endo-({[2-methyl-3-(methyloxy)phenyl]carbonyl}amino)-8-azabicyclo[3.2.1]oct-8-yl]pyridine-3-carboxamide]", "IC50": "500 to 999"},
      {"smiles": "COc1cccc(C(=O)N[C@H]2C[C@H]3CC[C@@H](C2)N3c2ccc(C(=O)NCCN(C)C)cn2)c1C", "note": "[N-[2-(dimethylamino)ethyl]-6-[3-endo-({[2-methyl-3-(methyloxy)phenyl]carbonyl}amino)-8-azabicyclo[3.2.1]oct-8-yl]pyridine-3-carboxamide]", "IC50": "1000 to 2000"},
      {"smiles": "COc1cccc(C(=O)N[C@H]2C[C@H]3CC[C@@H](C2)N3c2ccc(C(=O)NCCCn3ccnc3)cn2)c1C", "note": "[N-[3-(1H-imidazol-1-yl)propyl]-6-[3-endo-({[2-methyl-3-(methyloxy)phenyl]carbonyl}amino)-8-azabicyclo[3.2.1]oct-8-yl]pyridine-3-carboxamide]", "IC50": "< 500"},
      {"smiles": "CCN(CC)CCCNC(=O)c1ccc(N2[C@@H]3CC[C@H]2C[C@@H](NC(=O)c2cccc(OC)c2C)C3)nc1", "note": "[N-[3-(diethylamino)propyl]-6-[3-endo-({[2-methyl-3-(methyloxy)phenyl]carbonyl}amino)-8-azabicyclo[3.2.1]oct-8-yl]pyridine-3-carboxamide]", "IC50": "500 to 999"},
      {"smiles": "COc1cccc(C(=O)N[C@H]2C[C@H]3CC[C@@H](C2)N3c2ccc(C(=O)NCCCN(C)C)cn2)c1C", "note": "[N-[3-(dimethylamino)propyl]-6-[3-endo-({[2-methyl-3-(methyloxy)phenyl]carbonyl}amino)-8-azabicyclo[3.2.1]oct-8-yl]pyridine-3-carboxamide]", "IC50": "500 to 999"},
      {"smiles": "CCOCCCNC(=O)c1ccc(N2[C@@H]3CC[C@H]2C[C@@H](NC(=O)c2cccc(OC)c2C)C3)nc1", "note": "[N-[3-(ethyloxy)propyl]-6-[3-endo-({[2-methyl-3-(methyloxy)phenyl]carbonyl}amino)-8-azabicyclo[3.2.1]oct-8-yl]pyridine-3-carboxamide]", "IC50": "1000 to 2000"},
      {"smiles": "COc1cccc(C(=O)N[C@H]2C[C@H]3CC[C@@H](C2)N3c2ccc(C(=O)NCCCC(OC)OC)cn2)c1C", "note": "[N-[4,4-bis(methyloxy)butyl]-6-[3-endo-({[2-methyl-3-(methyloxy)phenyl]carbonyl}amino)-8-azabicyclo[3.2.1]oct-8-yl]pyridine-3-carboxamide]", "IC50": "1000 to 2000"},
      {"smiles": "CC(=O)c1ccc(N2[C@@H]3CC[C@H]2C[C@@H](NC(=O)c2cc(C)c(C(N)=O)cc2C)C3)nc1", "note": "[N-[8-(5-acetylpyridin-2-yl)-8-azabicyclo[3.2.1]oct-3-endo-yl]-2,5-dimethylbenzene-1,4-dicarboxamide]", "IC50": "< 500"},
      {"smiles": "CCCCCNc1cc(C(=O)N[C@H]2C[C@H]3CC[C@@H](C2)N3c2ccc(C(C)=O)cn2)c(C)cc1C(N)=O", "note": "[N-[8-(5-acetylpyridin-2-yl)-8-azabicyclo[3.2.1]oct-3-endo-yl]-2-methyl-5-(pentylamino)benzene-1,4-dicarboxamide]", "IC50": "< 500"},
      {"smiles": "CC(=O)c1ccc(N2[C@@H]3CC[C@H]2C[C@@H](NC(=O)c2cc(NC4CCC(C(F)(F)F)CC4)c(C(N)=O)cc2C)C3)nc1", "note": "(stereo partly drawn) [N-[8-(5-acetylpyridin-2-yl)-8-azabicyclo[3.2.1]oct-3-endo-yl]-2-methyl-5-{[4-(trifluoromethyl)cyclohexyl]amino} benzene-1,4-dicarboxamide]", "IC50": "< 500"},
      {"smiles": "CCC(CC)Nc1cc(C(=O)N[C@H]2C[C@H]3CC[C@@H](C2)N3c2ccc(C(C)=O)cn2)c(F)cc1C(N)=O", "note": "[N-[8-(5-acetylpyridin-2-yl)-8-azabicyclo[3.2.1]oct-3-endo-yl]-5-[(1-ethylpropyl)amino]-2-fluorobenzene-1,4-dicarboxamide]", "IC50": "< 500"}
    ]}
  ]
}
